“Also recorded” adds a separate entry of the source.
Tests used:
[1] = target: T1, human α4β1δ receptors in δ-HEK cells (Homo sapiens, UniProt P18505+P48169); assay: Whole-cell patch-clamp electrophysiology, concentration-response; format: cell-based
T1 construct: expressed in transfected cells; host or cells: δ-HEK (HEK293 Flp-In stably expressing human δ), transiently transfected with α4 and β1 1:1
Text: (§1) To express recombinant GABAΑ receptors human α1, α2, α3, α5, α6, β2, γ2 (pcDNA3.1/Zeo) and α4, β1 (pUNIV)[26] subunit cDNA were transiently transfected into either δ-HEK or HEK background cells. δ-HEK cells were transfected with α- and β-subunits in a 1:1 ration whereas HEK background cells were transfected with α-, β- and γ-subunits in a 1:1:2 ratio. Human BGT1 (pcDNA5/FRT)[43] was transiently transfected into the δ-HEK cell line. δ-HEK cells transfected for whole-cell patch-clamp recordings were co-transfected with green fluorescent protein (GFP) as well as α- and β-subunits in a 0.5:1:1 ratio (0.8 μg + 1.6 μg + 1.6 μg in a 6 cm dish) in order to identify transfected cells. The transfection was carried out using Polyfect as transfection reagent according to the manufactures protocol expect for using half the recommended volume of Polyfect.

human BGT1 = target: T2, human BGT1 (Homo sapiens, UniProt P48065); assay: Fluorescence interference control: BGT1-mediated GABA uptake in the FMP assay; format: cell-based; conditions: 110 μM GABA uptake by BGT1 in δ-HEK cells; 2027 at 30, 10, 3 μM
T2 construct: expressed in transfected cells; host or cells: δ-HEK cells, transient transfection (pcDNA5/FRT)
T2 sequence (P48065 1-614): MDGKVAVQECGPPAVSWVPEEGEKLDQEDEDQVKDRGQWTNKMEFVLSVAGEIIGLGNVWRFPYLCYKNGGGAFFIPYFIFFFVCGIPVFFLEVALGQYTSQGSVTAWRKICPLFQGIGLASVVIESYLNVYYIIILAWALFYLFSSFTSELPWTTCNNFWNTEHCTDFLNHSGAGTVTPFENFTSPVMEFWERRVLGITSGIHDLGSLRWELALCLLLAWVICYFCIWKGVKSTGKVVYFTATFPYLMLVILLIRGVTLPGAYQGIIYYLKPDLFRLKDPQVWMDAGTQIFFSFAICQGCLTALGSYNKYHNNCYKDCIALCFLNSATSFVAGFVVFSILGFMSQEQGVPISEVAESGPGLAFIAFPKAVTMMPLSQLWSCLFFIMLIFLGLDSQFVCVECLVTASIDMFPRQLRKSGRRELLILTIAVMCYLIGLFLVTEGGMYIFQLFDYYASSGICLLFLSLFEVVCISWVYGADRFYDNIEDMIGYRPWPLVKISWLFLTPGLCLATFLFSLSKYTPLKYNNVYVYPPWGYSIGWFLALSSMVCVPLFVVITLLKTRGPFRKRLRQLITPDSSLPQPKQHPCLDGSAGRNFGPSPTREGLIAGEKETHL
Text: as §1
assay (perf ormed essentially as previously described in methods section and based on Al-Khawaja et al.).
in d-HEK cells was not decreased/quenched by 2027 in any of the tested concentrations. Data are shown as
means ± SD f rom a representative expe riment perf orme d in triplicate (n=2).
BGT1 expressed in HEK-δ cells

T1 sequence (P48169 36-554): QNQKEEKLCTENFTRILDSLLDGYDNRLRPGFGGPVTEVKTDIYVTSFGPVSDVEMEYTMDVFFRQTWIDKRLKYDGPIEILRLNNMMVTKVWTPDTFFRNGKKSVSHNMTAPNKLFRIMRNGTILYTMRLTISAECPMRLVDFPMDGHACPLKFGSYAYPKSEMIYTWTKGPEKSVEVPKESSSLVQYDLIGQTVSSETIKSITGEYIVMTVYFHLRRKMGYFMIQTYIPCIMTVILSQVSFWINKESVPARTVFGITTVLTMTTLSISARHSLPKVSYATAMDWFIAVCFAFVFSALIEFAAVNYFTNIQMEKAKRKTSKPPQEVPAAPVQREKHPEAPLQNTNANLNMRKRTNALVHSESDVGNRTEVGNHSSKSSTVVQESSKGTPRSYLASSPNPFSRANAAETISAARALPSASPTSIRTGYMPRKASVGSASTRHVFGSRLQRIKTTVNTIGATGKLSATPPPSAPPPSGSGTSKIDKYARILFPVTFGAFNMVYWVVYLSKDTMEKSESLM
T1 sequence (P18505 26-474): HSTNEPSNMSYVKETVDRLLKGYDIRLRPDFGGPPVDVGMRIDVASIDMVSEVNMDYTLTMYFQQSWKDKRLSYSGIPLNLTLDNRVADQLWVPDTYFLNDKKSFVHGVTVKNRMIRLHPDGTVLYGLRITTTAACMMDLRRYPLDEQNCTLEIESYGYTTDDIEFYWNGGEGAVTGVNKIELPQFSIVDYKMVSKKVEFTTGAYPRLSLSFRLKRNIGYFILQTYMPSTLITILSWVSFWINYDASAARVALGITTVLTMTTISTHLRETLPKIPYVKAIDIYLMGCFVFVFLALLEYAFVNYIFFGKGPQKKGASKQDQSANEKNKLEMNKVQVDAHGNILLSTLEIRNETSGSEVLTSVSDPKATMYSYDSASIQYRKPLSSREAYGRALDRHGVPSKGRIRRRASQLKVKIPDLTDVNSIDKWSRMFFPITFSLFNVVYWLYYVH
T1 sequence (O14764 25-452 partner): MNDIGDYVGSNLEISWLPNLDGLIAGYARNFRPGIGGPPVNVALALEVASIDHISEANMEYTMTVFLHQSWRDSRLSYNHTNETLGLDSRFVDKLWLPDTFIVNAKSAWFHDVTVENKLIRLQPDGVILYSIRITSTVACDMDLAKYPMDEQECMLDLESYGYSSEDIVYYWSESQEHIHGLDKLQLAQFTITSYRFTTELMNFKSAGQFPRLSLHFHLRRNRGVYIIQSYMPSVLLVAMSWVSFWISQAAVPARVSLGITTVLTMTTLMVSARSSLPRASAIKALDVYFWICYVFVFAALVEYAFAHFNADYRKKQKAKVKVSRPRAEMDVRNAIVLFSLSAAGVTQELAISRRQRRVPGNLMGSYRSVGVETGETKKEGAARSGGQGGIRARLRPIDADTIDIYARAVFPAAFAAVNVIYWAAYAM

IC50 [1] [nM]	potency in patch-clamp relative to FMP assay ([1]; α4β1δ) [times]	SMILES	interference with / quenching of the fluorescence signal (human BGT1)
10.8	9	O=C(Nc1cccc(C(=O)N2CCC3(CCNCC3)CC2)c1)c1cccs1 [compound 018, N-(3-(3,9-diazaspiro[5.5]undecane-3-carbonyl)phenyl)thiophene-2-carboxamide]	
		CC(=O)Nc1cccc(C(=O)N2CCC3(CCNCC3)CC2)c1 [compound 2027, N-(3-(3,9-diazaspiro[5.5]undecane-3-carbonyl)phenyl)acetamide]	does not quench; also recorded: do not interfere

Source: PMC7308271, “Discovery of a new class of orthosteric antagonists with nanomolar potency at extrasynaptic GABAA receptors” (Scientific Reports, 2020)
